Measurements reported in PubChem BioAssay (NCI).
Where “and” joins values, the source holds several entries; their conditions need not be identical. Equal values may be shown once.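 Cells were grown in 96-well plates and exposed to each compound for 48 hours at five concentrations; endpoints were interpolated linearly between bracketing concentrations, or set to the highest concentration if not reached. GI50 is the concentration that inhibits growth by half. TGI: total growth inhibition.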 Where a SMILES comes first, the peptide text is derived from it. [ ]: non-standard residue; d: D form. NMeY = CN[C@@H](Cc1ccc(O)cc1)C(=O)O; dNMeF = CN[C@H](Cc1ccccc1)C(=O)O; Sar = CNCC(=O)O

Tests used:
Assay in all cases: NCI tumour cell line growth inhibition, 48 h
[1] = system: SR leukemia
[2] = system: NCI-H460 lung
[3] = system: MDA-MB-435
[4] = system: MDA-MB-231 breast
[5] = system: SNB-19 CNS
[6] = system: RPMI-8226 leukemia
[7] = system: HCT-15 colon
[8] = system: COLO 205 colon
[9] = system: SK-MEL-5 melanoma
[10] = system: DU-145 prostate

SMILES | GI50 [1] [µM] | TGI [1] [µM] | GI50 [2] [µM] | TGI [2] [µM] | GI50 [3] [µM] | TGI [3] [µM] | GI50 [4] [µM] | TGI [4] [µM] | GI50 [5] [µM] | TGI [5] [µM] | GI50 [6] [µM] | TGI [6] [µM] | GI50 [7] [µM] | TGI [7] [µM] | GI50 [8] [µM] | TGI [8] [µM] | GI50 [9] [µM] | TGI [9] | GI50 [10] [µM] | TGI [10] [µM]
Cc1ccc(N=Nc2c(N)nn(-c3ccccc3)c2N)cc1 | 0.378 | > 100 | 1.07 | > 100 | 0.177 | 0.568 | 7.41 | > 100 | 6.23 | > 100 | 1.61 | 42 | 0.612 | > 100 | 1.21 | > 26.9 | 1.65 | > 100 µM | 3.44 | > 100
CC[C@H](C)[C@@H]1NC(=O)[C@H](Cc2ccc(O)cc2)N(C)C(=O)[C@H](Cc2ccccc2)NC(=O)CN(C)C(=O)[C@@H]2CCCN2C(=O)[C@@H](Cc2ccccc2)N(C)C(=O)[C@H](CC(C)C)NC1=O (cyclo(F[NMeY]IL[dNMeF]P[Sar])) | 0.123 | 6.28 | 0.184 | 1.94 | 0.205 | 1.7 | 0.331 | 4.28 | 0.146 | 6.92 | 0.229 | 1.2 | 4.1 | 19.8 | 0.185 | 3.3 | 0.485 | 1.85 µM | 0.205 | 10.9
C/C1=C\C/C=C(\C)[C@H]2CC(CC/C(C)=C/CC1)[C@@](C)(CO)O2 | 14.6 | 43.8 | 74.4 | > 100 | > 100 | > 100 | 54.9 | > 100 | > 100 | > 100 | 40.6 | > 100 | > 100 | > 100 | > 100 | > 100 | 87.3 | > 100 µM | > 100 | > 100
CCOC(=O)Cn1c(C)c(/C=N/NC(=O)c2cc3c(ccc4ccccc43)o2)c2ccccc21 | 0.153 | > 21.8 | 0.383 | 1.79 | 0.0474 | 0.251 | 0.702 | 3.33 | 0.478 | 16.3 | 0.443 | 3.12 | 0.408 | 5.45 | 0.401 |  | 0.381 | 1.71 µM | 0.411 | 2.93
O=C1c2ccccc2-c2n[nH]c3cccc1c23 | 9.01 | > 100 | 8.6 | > 100 | 15.8 | > 100 | 35.8 | > 100 |  | > 100 | 14.1 | > 100 | 6.66 | > 100 | 23.9 | > 100 | 25.6 | 37.5 µM and > 94.6 µM | 13 | > 100
CC1(O)CC2(O)C=CC3=C(C(=O)c4cccc(O)c4C3=O)C2(O)C(=O)C1O (stereo not drawn) |  | 18.1 |  | 34.3 |  | 3.32 |  | 11.8 |  | 30.4 |  | 4.66 |  | 2.98 |  | 0.436 |  | 7.58 µM |  | 32.3
CCN(CC)CCCOc1cc(O)c2c(=O)cc(-c3ccccc3)oc2c1 | 3.44 | 9.39 | 4.2 | 14.6 | 5.5 | 24.8 | 6.54 | 18.9 | 12.1 | 24.5 | 9.71 | 28.4 | 3.94 | 14.6 | 4.21 | 15.5 | 3.16 | 11.8 µM | 10.2 | 21.8
O=C(NNc1ccccc1)OCc1ccccc1 | 41.3 | > 100 | 4.43 | > 100 | 4.13 | > 100 | 11.3 | > 100 | 63.9 | > 100 | 17.3 | > 100 | 4.98 | > 100 | 17 | 46.4 | 16.8 | > 100 µM | 75.5 | > 100
CCOC(=O)c1ccc(Nc2sc(C(=O)c3cccc([N+](=O)[O-])c3)c(N)c2C#N)cc1 | 0.034 | 4.71 | 0.0519 | 4.14 | 0.0309 | 0.264 | 1.1 | 9.63 | 0.338 | 18.6 | 0.333 | 20.3 | 0.102 | > 100 | 0.156 | 1.59 | 0.156 | 12.2 µM | 0.184 | 21.1
O=C(OCC1OC(OC(=O)c2cc(O)c(O)c(OC(=O)c3cc(O)c(O)c(O)c3)c2)C(OC(=O)c2cc(O)c(O)c(OC(=O)c3cc(O)c(O)c(O)c3)c2)C(OC(=O)c2cc(O)c(O)c(OC(=O)c3cc(O)c(O)c(O)c3)c2)C1OC(=O)c1cc(O)c(O)c(OC(=O)c2cc(O)c(O)c(O)c2)c1)c1cc(O)c(O)c(OC(=O)c2cc(O)c(O)c(O)c2)c1 (stereo not drawn) | 21 | > 50 | 4.14 | 36 | 10.9 | 30.5 | 9.85 | 36.7 | 24.7 | > 50 | 20.8 | > 50 | 9.73 | > 50 | 14.5 | > 50 | 10 | 27.9 µM | 14.8 | > 50
COc1cc2ccnc3c2c(c1OC)-c1ccc(=O)ccc1-3 | 2.95 | 21.4 | 20.7 | > 100 | 31.5 | 90.6 | 26.9 | > 100 | 55.3 | > 100 | 18.4 | 51.9 | 22.5 | 77.1 | 35.2 | 97.8 | 17.1 | 47.9 µM | 28.8 | > 100
COc1cc(Cn2ccc3c2-c2oncc2CC3)cc(OC)c1 | 0.851 | 31.1 | 3.11 | 13.3 | 0.369 | 4.03 | 6.58 | 81.4 | 5.89 | > 100 | 4.98 | 50.3 | 3.03 | > 100 | 3.7 | 17.3 | 2.75 | 10.4 µM | 3.99 | > 100
